# Test results as given in patent publication US4965266A, “Heteroarylcarboxamide derivatives, process for preparing the same and pharmaceutical composition containing the same” (Dainippon Pharmaceutical Co., Ltd., priority 1987, dated 1990).
# Counter-ions that a name gives are not always drawn.
# What was measured:
# [1] = tested on: passive cutaneous anaphylaxis (PCA); assay: Inhibitory effect on passive cutaneous anaphylaxis (PCA) (antiallergic activity in vivo); parameters: species or system rat (male Wistar); conditions: 20 mg/kg oral, 1 hour prior to dye injection; rats; vs control group
# Experimental: Male Wistar rats (weighing 130 to 190 g) were injected with a dilute solution (0.1 ml) of mouse antiserum to egg albumin, which was prepared by the method of Levine et al. [Int. Arch. Allergy Appl. […] Forty-eight hours later, 0.5% Evan's blue solution (1 ml) containing 2 mg of egg albumin was intravenously injected to tail vein of the animal. Thirty minutes after the dye injection, abdominal skin was peeled off and the area of the blueing lesions was measured. In each rat, a mean value of the two lesions was regarded as the response of the rat. The test compounds in a dose of 20 mg/kg, dissolved or suspended in a 0.5% aqueous tragacanth solution, were orally administered 1 hour prior to the dye injection.
# 5-lipoxygenase = target: T1, 5-lipoxygenase (Cavia porcellus, UniProt A0A286X958); assay: Inhibitory effect on 5-lipoxygenase activity (antiallergic activity in vitro); type: biochemical, guinea pig (male Hartley); conditions: for inhibition at 10 µM: 10^-5 M test compound, guinea pig peritoneal exudate cell cytosol, mean of 3 to 6 experiments
# T1 construct: A cytosol fraction of peritoneal exudate cell from male Hartley guinea pig (weighing 400 to 700 g) was used as 5-lipoxygenase; endogenous in cells; host or cells: cytosol fraction of peritoneal exudate cells from male Hartley guinea pig
# T1 sequence (A0A286X958 1-674): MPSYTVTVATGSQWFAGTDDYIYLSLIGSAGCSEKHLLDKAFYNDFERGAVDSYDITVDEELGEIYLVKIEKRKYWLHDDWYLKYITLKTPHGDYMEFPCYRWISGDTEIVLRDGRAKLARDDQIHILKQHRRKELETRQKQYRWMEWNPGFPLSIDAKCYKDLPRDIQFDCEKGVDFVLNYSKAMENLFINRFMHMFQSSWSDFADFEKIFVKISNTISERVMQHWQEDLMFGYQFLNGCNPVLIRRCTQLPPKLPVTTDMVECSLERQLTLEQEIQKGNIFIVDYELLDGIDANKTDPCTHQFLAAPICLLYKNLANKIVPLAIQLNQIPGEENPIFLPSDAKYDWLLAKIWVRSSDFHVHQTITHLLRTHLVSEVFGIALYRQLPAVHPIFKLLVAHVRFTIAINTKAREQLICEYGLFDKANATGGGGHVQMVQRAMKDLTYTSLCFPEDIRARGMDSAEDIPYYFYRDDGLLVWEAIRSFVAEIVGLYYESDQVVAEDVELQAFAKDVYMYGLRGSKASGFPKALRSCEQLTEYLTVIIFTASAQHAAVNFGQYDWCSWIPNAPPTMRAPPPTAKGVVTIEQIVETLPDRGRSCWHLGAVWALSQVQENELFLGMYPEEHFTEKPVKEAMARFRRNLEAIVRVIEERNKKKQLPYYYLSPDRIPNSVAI
# Experimental: This experiment was carried out by the method of Miyamoto and Obata ["Perspectives in Prostaglandin Research", ed. by Y. Shiokawa et al., Excerpta Medica, Amsterdam-Oxford-Princeton, 1983, p.78] with minor modifications.
# A cytosol fraction of peritoneal exudate cell from male Hartley guinea pig (weighing 400 to 700 g) was used as 5-lipoxygenase. As a standard reaction solution, a mixture of 50 mM potassium phosphate buffer (pH 7.4), 1 mM calcium chloride, 1 mM glutathione, 1 mM adenosine triphosphate, 10 μM indomethacin and the enzyme was used. To the reaction solution was added 0.02 μCi of [1-^14 C] arachidonic acid and the mixture was incubated at 30° C. for 5 minutes, followed by adding 0.6 ml of a cold solution comprising diethyl ether methanol -0.2 M citric acid (30 : 4 : 1) to terminate the reaction. The organic layer (300 μ1) was subjected to a thin layer chromatography plate on silica gel 60 F254 (E. Merck, West Germany) and, after developing, a radioactivity was measured by means of radiochromatogram scanner (Packard, U.S.A.) 5-Lipoxygenase activity was calculated by the following equation. [formula]
# The results are shown in Table 1 in terms of mean value of 3 to 6 experiments.
# ddY mice = assay: Acute toxicity; type: in vivo; conditions: 1000 mg/kg oral; male ddY mice, 7 days observation
# From the text: Five male ddY mice weighing 25 to 29 g were used in each group.
Structure (SMILES),inhibition at 10 µM (5-lipoxygenase),also measured
"Cc1ccc2c(O)c(C(=O)NCCCCN3CCC(=C(c4ccccc4)c4ccccc4)CC3)cnc2n1 [Example 1, N-[4-(4-diphenylmethylene-1-piperidyl)butyl]-4-hydroxy-7-methyl-1,8-naphthyridine-3-carboxamide.cndot.1/4 hydrate]",96.8%,PCA inhibition (%) [1]: 88.3%; death of the animals (ddY mice): no death was observed
"O=C(NCCCCN1CCN(C(c2ccccc2)c2ccccc2)CC1)c1cnc2cccc(O)c2c1O [Example 4, N-[4-(4-diphenylmethyl-1-piperazinyl)butyl]-4,5-dihydroxyquinoline-3-carboxamide]",95.4%,
"N#Cc1ccc2c(O)c(C(=O)NCCCCN3CCN(C(c4ccccc4)c4ccccc4)CC3)cnc2c1 [Example 7 (7cyano compound), N-[4-(4-diphenylmethyl-1-piperazinyl)butyl]-7-cyano-4-hydroxyquinoline-3-carboxamide]",84.7%,
"Cc1ccc2c(O)c(C(=O)NCCCCN3CCN(C(c4ccccc4)c4ccccc4)CC3)cnc2n1 [Example 2, N-[4-(4-diphenylmethyl-1-piperazinyl)butyl]-4-hydroxy-7-methyl-1,8-naphthyridine-3-carboxamide.cndot.1/2 hydrate]",79.6%,PCA inhibition (%) [1]: 80.7%
Cc1ccc2ncc(C(=O)NCCCCN3CCN(C(c4ccccc4)c4ccccc4)CC3)c(O)c2c1 [Example 14],93.7%,
COc1ccc2ncc(C(=O)NCCCCN3CCN(C(c4ccccc4)c4ccccc4)CC3)c(O)c2c1 [Example 18],93.2%,
COc1ccc2c(O)c(C(=O)NCCCCN3CCN(C(c4ccccc4)c4ccccc4)CC3)cnc2c1 [Example 19],92.8%,
O=C(NCCCCN1CCN(C(c2ccccc2)c2ccccc2)CC1)c1cnc2ccccc2c1O [Example 12],83.7%,
"CN1CCC(=C2c3ccccc3CC(=O)c3sccc32)CC1 [Ketotifen fumarate, reference compound]",,PCA inhibition (%) [1]: 54.7%; 5-lipoxygenase inhibitory activity (in words) (5-lipoxygenase; ketotifen fumarate at 10^-4 M): did not show any significant inhibitory activity
"N#Cc1cccc2ncc(C(=O)NCCCCN3CCN(C(c4ccccc4)c4ccccc4)CC3)c(O)c12 [Example 7 (5cyano compound), N-[4-(4-diphenylmethyl-1-piperazinyl)butyl]-5-cyano-4-hydroxyquinoline-3-carboxamide]",92.1%,
"COc1cccc2c(O)c(C(=O)NCCCCN3CCN(C(c4ccccc4)c4ccccc4)CC3)cnc12 [Example 3, N-[4-(4-diphenylmethyl-1-piperazinyl)butyl]-4-hydroxy-8-methoxyquinoline-3-carboxamide]",91.3%,PCA inhibition (%) [1]: 56.0%; death of the animals (ddY mice): no death was observed
"Cc1ccc2c(S)c(C(=O)NCCCCN3CCN(C(c4ccccc4)c4ccccc4)CC3)cnc2n1 [Example 9, N-[4-(4-diphenylmethyl-1-piperazinyl)butyl]-4-mercapto-7-methyl-1,8-naphthyridine-3-carboxamide.cndot.fumarate.cndot.1/2 hydratet]",88.3%,
"Cc1ccc(C(=O)NCCCCN2CCN(C(c3ccccc3)c3ccccc3)CC2)c(O)n1 [Example 10, N-[4-(4-diphenylmethyl-1-piperazinyl)butyl]-2-hydroxy-6-methylpyridine-3-carboxamide]",,PCA inhibition (%) [1]: 84.8%
Cc1ccc2c(O)c(C(=O)NCCCCN3CCN(C(c4ccccc4)c4ccccc4)CC3)cnc2c1 [Example 15],93%,
Cc1cccc2c(O)c(C(=O)NCCCCN3CCN(C(c4ccccc4)c4ccccc4)CC3)cnc12 [Example 16],90.6%,
"COc1c(C(=O)NCCCCN2CCN(C(c3ccccc3)c3ccccc3)CC2)cnc2ccccc12 [Example 5, N-[4-(4-diphenylmethyl-1-piperazinyl)butyl]-4-methoxyquinoline-3-carboxamide.cndot.1/4 hydrate]",80.3%,
N#Cc1ccc2ncc(C(=O)NCCCCN3CCN(C(c4ccccc4)c4ccccc4)CC3)c(O)c2c1 [Example 21],67.9%,
"CC(C)c1ccc(C(=O)NCCCCN2CCN(C(c3ccccc3)c3ccccc3)CC2)c(O)n1 [Example 6, N-[4-(4-diphenylmethyl-1-piperazinyl)butyl]-2-hydroxy-6-isopropylpyridine-3carboxamide]",75.1%,PCA inhibition (%) [1]: 93.0%; death of the animals (ddY mice): no death was observed
"COc1cccc2c(O)c(C(=O)NCCCCN3CCC(=C(c4ccccc4)c4ccccc4)CC3)cnc12 [Example 8, N-[4-(4-diphenylmethylene-1piperidyl)butyl]-4-hydroxy-8-methoxyquinoline-3-carboxamide.cndot.fumarate]",93.3%,
CCCCOc1cccc2c(O)c(C(=O)NCCCCN3CCN(C(c4ccccc4)c4ccccc4)CC3)cnc12 [Example 20],94.8%,
CC(C)c1ccc2ncc(C(=O)NCCCCN3CCN(C(c4ccccc4)c4ccccc4)CC3)c(O)c2c1 [Example 17],95.3%,
